Test results reported in US20190030005A1, “THERAPEUTIC AGENT FOR DYSLIPIDEMIA” (KOWA COMPANY, LTD., priority 2013, published 2019).

Assays:
VLDL-C = assay: Effects of combination use of Compound A and EPA on plasma VLDL-C levels in rats; format: in vivo, Wister rats; settings: for Effect on VLDL-C level, in words: Compound A 0.1 mg/kg and/or EPA 200 mg/kg, single or combination administration, Dunnett's test vs control; for VLDL-C Relative value (vs Control): oral once a day, Wister rats, plasma
Experimental: (§1) Wister rats (7-week old, male, Charles River Laboratories Japan Inc.) were used for the experiments. Under ad libitum feeding, the blood samples were obtained from the cervical vein, and the rats were divided into four groups (N=8) based on the plasma TG levels, plasma TC levels and the body weights. From the next day, a solvent (a 0.5% aqueous solution of methyl cellulose: […] In the afternoon of the final administration day, the blood samples were obtained under a condition of 4 hours fasting under anesthesia with pentobarbital, and the plasma VLDL-C levels were measured according to the method by Usui et al. (Usui S et al., Clin. Chem. 46, 63-72, 2000.) by high-speed liquid chromatography. Further, the TG levels were measured by an automatic analyzer, by using a measuring reagent, Qualigent TG (Sekisui Medical Co., Ltd.). The synergistic effect was determined by using Bürgi's formula (when a relative level in a group of combined use is smaller than a value of a product of a relative level of single agent A and a relative level of single agent B, then there is a synergistic effect). Group 2: 0.1 mg/kg of Compound A Group 3: 200 mg/kg of EPA Group 4: 0.1 mg/kg of Compound A and 200 mg/kg of EPA The results are shown as the mean value±standard deviation. Comparison between the control group and the drug-administration group was performed using a Dunnett's multiple comparison test, and a risk rate of less than 5% was determined to have a significant difference.

LDL-C = assay: Effects of combination use of Compound A and EPA on plasma LDL-C level in Wister rats; format: in vivo; settings: for LDL-C Relative value (vs. Control): oral once a day, Wister rats, plasma; for Effect on LDL-C level, in words: single administration of Compound A (0.1 mg/kg) or EPA, Dunnett's test vs control
Experimental: as §1, with “divided into six groups (N=8)” for “divided into four groups (N=8)”, “the plasma LDL-C levels were” for “the plasma VLDL-C levels were”, “liquid chromatography. The synergistic” for “liquid chromatography. Further, the TG levels were measured by an automatic analyzer, by using a measuring reagent, Qualigent TG (Sekisui Medical Co., Ltd.). The synergistic”, “of EPA Group 5: 3,000 mg/kg of EPA Group 6: 0.1 mg/kg of Compound A and 3,000 mg/kg of EPA The results” for “of EPA The results”, “group and drug-administration group” for “group and the drug-administration group”, “was performed by using a” for “was performed using a”

TG = assay: Effects of combination use of Compound A and EPA on TG levels in rats; format: in vivo, Wister rats; settings: for Effect on TG level, in words: Compound A 0.1 mg/kg and/or EPA 200 mg/kg, single or combination administration, Dunnett's test vs control; for TG Relative value (vs Control): oral once a day, Wister rats
Experimental: as §1

Compound | Effect on VLDL-C level, in words (VLDL-C) | VLDL-C Relative value (vs Control) (VLDL-C; EPA 200 mg/kg alone) | LDL-C Relative value (vs. Control) (LDL-C; EPA 200 mg/kg alone) | LDL-C Relative value (vs. Control) (LDL-C; EPA 3000 mg/kg alone) | Effect on LDL-C level, in words (LDL-C) | Effect on TG level, in words (TG) | TG Relative value (vs Control) (TG; EPA 200 mg/kg alone) | VLDL-C Relative value (vs Control) (VLDL-C; Compound A 0.1 mg/kg alone) | LDL-C Relative value (vs. Control) (LDL-C; Compound A 0.1 mg/kg alone) | TG Relative value (vs Control) (TG; Compound A 0.1 mg/kg alone)
CC/C=C\C/C=C\C/C=C\C/C=C\C/C=C\CCCC(=O)O [EPA, All-cis-5,8,11,14,17-eicosapentaenoic acid] | any obvious effect on VLDL-C level was not observed | 0.92 | 0.84 | 0.85 | mild decreasing action on LDL-C level was observed | any obvious effect on TG level was not observed | 1.10 | – | – | –
CC[C@@H](Oc1cccc(CN(CCCOc2ccc(OC)cc2)c2nc3ccccc3o2)c1)C(=O)O [Compound A, (R)-2-[3-[[N-(benzoxazol-2-yl)-N-3-(4-methoxyphenoxy)propyl]aminomethyl]phenoxy]butyric acid] | a tendency of decreasing the level of VLDL-C was observed | – | – | – | an obvious effect on LDL-C level was not observed | a tendency of decreasing the level of TG was observed | – | 0.68 | 1.02 | 0.82
